Data from ChEMBL document CHEMBL5150030, “Enhancing the Safety and Efficacy of PSMA-Based Small-Molecule Drug Conjugates by Linker Stabilization and Conjugation to Transthyretin Binding Ligand” (J Med Chem, 2022).
Activity calls are given as the source filed them. The rule behind the calls is not given here. Square brackets hold non-standard residues; d marks the D form. Peptide text beside a SMILES is read from it. * marks the point of attachment. Dolaproine = CO[C@@H]([C@@H]1CCCN1)[C@@H](C)C(=O)O; Dil = CC[C@H](C)[C@H](NC)[C@@H](CC(=O)O)OC; X1 = C[C@@H](N*)[C@@H](O)c1ccccc1; NMeV = CN[C@H](C(=O)O)C(C)C

Columns and labels:
[1] = Toxicity in mouse assessed as reduction in body weight at 20 mg/kg,ip measured for 21 days by every 3 days; type: organism-based; conditions: in vivo, 504 h, time 21 day
[2] = Toxicity in mouse assessed as reduction in body weight at 40 mg/kg,ip measured upto 21 days for every 3 days; type: organism-based; conditions: in vivo, 504 h, time < 21 day
[3] = Toxicity in mouse xenografted with human LNCaP cells assessed as change in body weight at 10 mg/kg,ip administrated upto 35 days for every 5 days; type: organism-based; conditions: in vivo, 840 h, time < 35 day
[4] = Stability of compound in human serum at 37 degreeC incubated for 24 hrs by RP-HPLC analysis; type: ADME, cell-free
[5] = Drug concentration in CD-1 mouse at 2.5 mg/kg,ip measured upto 24 hrs by LC-MS/MS analysis; type: ADME, organism-based; conditions: in vivo
[6] = Drug metabolism in human liver assessed as cathepsin B mediated hydrolysis MMAE metabolite formation measured after 15 mins by HPLC/LC-MS/MS analysis; type: ADME, tissue-based; conditions: 0.25 h
HeLa [7] = test: Cytotoxicity against human HeLa cells assessed as reduction in cell viability incubated for 72 hrs in presence of TTR by CellTiter-96 assay; type: functional, cell-based
[8] = Toxicity in mouse assessed as maximum tolerated dose administered intraperitoneally measured upto 21 days for every 3 days; conditions: in vivo, route ip, time < 21 day
DU-145 [9] = test: Cytotoxicity against human DU-145 cells assessed as reduction in cell viability incubated for 72 hrs by CellTiter-96 assay; type: functional, cell-based; conditions: DU-145, 72 h
[10] = Toxicity in mouse assessed as increase in body weight at 6.2 mg/kg,ip measured upto 21 days for every 3 days; type: organism-based; conditions: in vivo, 504 h, time < 21 day
[11] = Toxicity in CD-1 mouse assessed as body weight loss at 2.5 mg/kg,ip administrated upto 20 days for every 5 days; type: organism-based; conditions: in vivo, 480 h, time < 20 day
[12] = Stability of compound in mouse serum at 37 degreeC incubated for 24 hrs by RP-HPLC analysis; type: ADME, cell-free; conditions: read-out: Stability
LNCaP [13] = test: Cytotoxicity against human LNCaP cells assessed as reduction in cell viability incubated for 72 hrs by CellTiter-96 assay; type: functional, cell-based
LNCaP [14] = test: Cytotoxicity against human LNCaP cells assessed as reduction in cell viability incubated for 72 hrs in presence of TTR by CellTiter-96 assay; type: functional, cell-based
HeLa [15] = test: Cytotoxicity against human HeLa cells assessed as reduction in cell viability incubated for 72 hrs by CellTiter-96 assay; type: functional, cell-based
[16] = Stability of compound in PBS at 37 degreeC incubated for 24 hrs by RP-HPLC analysis; type: physicochemical; conditions: buffer
DU-145 [17] = test: Cytotoxicity against human DU-145 cells assessed as reduction in cell viability incubated for 72 hrs in presence of TTR by CellTiter-96 assay; type: functional, cell-based; conditions: DU-145, 72 h
[18] = Toxicity in mouse xenografted with human LNCaP cells assessed as increase in body weight at 3.1 mg/kg,ip administrated upto 35 days for every 5 days; type: organism-based; conditions: in vivo, 840 h, time < 35 day
[19] = Toxicity in mouse xenografted with human LNCaP cells assessed as mouse survival time at 3.1 mg/kg,ip administrated upto 35 days for every 5 days; type: organism-based; conditions: in vivo, 840 h, time < 35 day
LNCaP [20] = test: Antitumor activity against human LNCaP cells xenografted mouse assessed as reduction in tumor relapse at 3.1 mg/kg,ip administrated upto 35 days for every 5 days; type: functional, organism-based; conditions: time <= 35.0 day
[21] = Drug concentration in CD-1 mouse at 3 mg/kg,ip measured upto 24 hrs by LC-MS/MS analysis; type: ADME, organism-based; conditions: in vivo
Transthyretin [22] = biological target: T1, Transthyretin (Homo sapiens, UniProt P02766); test: Binding affinity to human serum TTR assessed as target occupancy incubated for 6 hrs by fluorescence polarization assay
Transthyretin [23] = biological target: T1, Transthyretin; test: Binding affinity to human TTR incubated for 20 mins by fluorescence polarization assay
[24] = Toxicity in CD-1 mouse assessed as body weight loss at 3.1 mg/kg,ip administrated upto 20 days for every 5 days; type: organism-based; conditions: in vivo, 480 h, time < 20 day
[25] = Drug metabolism in human liver assessed as cathepsin B mediated hydrolysis MMAE metabolite formation measured after 30 mins by HPLC/LC-MS/MS analysis; type: ADME, tissue-based; conditions: 0.5 h
[26] = biological target: Transthyretin (Mus musculus) (UniProt P07309); test: Binding affinity to mouse serum TTR assessed as target occupancy incubated for 1 hrs by fluorescence polarization assay
LNCaP [27] = test: Antitumor activity against human LNCaP cells xenografted mouse assessed as reduction in tumor growth at 3.1 mg/kg,ip administrated upto 35 days for every 5 days; type: functional, organism-based; conditions: time <= 35.0 day
[28] = Toxicity in CD-1 mouse assessed as body weight loss at 0.4 mg/kg,ip administrated upto 20 days for every 5 days; type: organism-based; conditions: in vivo, 480 h, time < 20 day

Row | Activity (Transthyretin [22]) | SMILES | Stability [4] | IC50 (HeLa [7]) | MTD at 504 h [8] | IC50 (DU-145 [9]) | remaining at 24 h [12] | IC50 (LNCaP [13]) | IC50 (LNCaP [14]) | IC50 (HeLa [15]) | Stability [16] | IC50 (DU-145 [17]) | Kd (Transthyretin [23]) | further results
1 |  | CC(=O)O[C@@]12CO[C@@H]1C[C@H](O)[C@@]1(C)C(=O)[C@H](O)C3=C(C)[C@@H](OC(=O)[C@H](O)[C@@H](NC(=O)OC(C)(C)C)c4ccccc4)C[C@@](O)([C@@H](OC(=O)c4ccccc4)[C@H]21)C3(C)C [DOCETAXEL ANHYDROUS] |  |  |  |  |  |  |  |  |  |  |  | Activity [1]: Toxic; Activity [2]: Toxic; Activity [3]: Non-Toxic
2 |  | C#CCC(NC(=O)CCSC1CC(=O)N(CCCCCC(=O)N[C@@H](CCC(=O)O)C(=O)N[C@H](C(=O)N[C@@H](CCCNC(N)=O)C(=O)Nc2ccc(COC(=O)N(C)[C@H](C(=O)N[C@H](C(=O)N(C)[C@@H]([C@@H](C)CC)[C@@H](CC(=O)N3CCC[C@H]3[C@H](OC)[C@@H](C)C(=O)N[C@H](C)[C@@H](O)c3ccccc3)OC)C(C)C)C(C)C)cc2)C(C)C)C1=O)C(=O)NCCCCCC(=O)NCCCC[C@H](NC(=O)N[C@@H](CCC(=O)O)C(=O)O)C(=O)O (some centres not stated) | Stable | 525 nM | 5 mg/kg | 1050 nM | 64.1% | 0.83 nM | 0.81 nM | 551 nM | Stable | 1020 nM |  | Drug uptake [5]: Active; Drug metabolism [6]: Metabolite_Detected; Activity [10]: Toxic; Activity [11]: Non-Toxic
3 |  | CC[C@H](C)[C@@H]([C@@H](CC(=O)N1CCC[C@H]1[C@H](OC)[C@@H](C)C(=O)N[C@H](C)[C@@H](O)c1ccccc1)OC)N(C)C(=O)[C@@H](NC(=O)[C@@H](NC)C(C)C)C(C)C (H-[NMeV]V[Dil][Dolaproine]-X1) |  | 1 nM |  | 0.55 nM |  | 0.79 nM | 0.71 nM | 1.1 nM |  | 0.62 nM |  | Activity [28]: Toxic
4 | 80.7% | Cc1n[nH]c(C)c1CCCOc1cc(OCCCCCCNCCOCCOCCN=[N+]=[N-])cc(C(=O)O)c1 |  |  |  |  |  |  |  |  |  |  | 74.3 nM | 
5 | 49.5% | O=C(O)c1ccc2nc(-c3cc(Cl)cc(Cl)c3)oc2c1 |  |  |  |  |  |  |  |  |  |  |  | 

Row | SMILES | Activity (Transthyretin [22]) | Stability [4] | IC50 (HeLa [7]) | MTD at 504 h [8] | IC50 (DU-145 [9]) | remaining at 24 h [12] | IC50 (LNCaP [13]) | IC50 (LNCaP [14]) | IC50 (HeLa [15]) | Stability [16] | IC50 (DU-145 [17]) | Kd (Transthyretin [23]) | further results
6 | CC[C@H](C)[C@@H]([C@@H](CC(=O)N1CCC[C@H]1[C@H](OC)[C@@H](C)C(=O)N[C@H](C)[C@@H](O)c1ccccc1)OC)N(C)C(=O)[C@@H](NC(=O)[C@H](C(C)C)N(C)C(=O)OCc1ccc(NC(=O)[C@H](CCCNC(N)=O)NC(=O)[C@@H](NC(=O)[C@H](CCC(=O)O)NC(=O)CCCCCN2C(=O)CC(SCCC(=O)NC(Cc3cn(CCOCCOCCNCCCCCCOc4cc(OCCCc5c(C)n[nH]c5C)cc(C(=O)O)c4)nn3)C(=O)NCCCCCC(=O)NCCCC[C@H](NC(=O)N[C@@H](CCC(=O)O)C(=O)O)C(=O)O)C2=O)C(C)C)cc1)C(C)C (some centres not stated) | 67.5% | Stable | 816 nM | 3.1 mg/kg | 421 nM | 71.3% | 1.02 nM | 1.19 nM | 259 nM | Stable | 1250 nM | 448 nM | Activity [18]: Toxic; Survival [19]: 100 days; Activity (LNCaP [20]): Active; Drug uptake [21]: Active; Activity [24]: Non-Toxic; Drug metabolism [25]: Metabolite_Detected; Activity [26]: Active; Activity (LNCaP [27]): Active
